Reference: US20230181905A1, “Systems, Devices, and Methods for Enhancing the Neuroprotective Effects of Non-Invasive Gamma Stimulation with Pharmacological Agents” (Massachusetts Institute of Technology, priority 2021, published 2023)

Columns and labels:
vGAT = vGAT synaptic puncta immunohistochemistry; format: in vivo, mouse; conditions: 5×FAD mice, visual cortex
Procedure: Loss of synapses and neurons are closely associated with higher neuroinflammatory response and cognitive decline in AD. Therefore, synaptic markers in the visual cortex of Plx3397 and/or GENUS treated mice were evaluated. […] Thus, whether these treatments had any effect on neuronal density by immunohistochemical analysis of neuronal marker NeuN was examined (Synaptic Systems, #266 004) positive cells (FIG. 4A).
vGAT and vGLUT1 puncta: LSM 710, with a 40× objective, was used to acquire the images. The entire […] thickness of the slices was acquired in Z stacks—80 per image (step of 0.5 μm). The spot-count inbuilt function in Imarisx64 9.3 was used to count cells automatically.
vGAT and vGLUT1 puncta: LSM 710, with a 40× objective, was used to acquire the images. The entire […] thickness of the slices was acquired in Z stacks—80 per image (step of 0.5 μm). The spot-count inbuilt function in Imarisx64 9.3 (cohortl) and 9.7 (cohort 2) was used to count cells automatically.

aggrecan = assay: Aggrecan immunohistochemistry around PV interneurons; format: in vivo, mouse; conditions: 5×FAD mice, visual cortex; Plx3397 50 days
Source text: These observations led to examination of the effect of Plx3397 administration on neuronal integrity. […] Indeed, it was observed that Plx3397 administration increased WFA+(Wisteria floribunda agglutinin, a PNN marker) PNN signals (au, 289400000±9384029 versus 213000000±16633300 in controls) (FIG. 22A, 22F), while aggrecan (a component in PNN) signals were […] specifically around PV interneurons in Plx3397 administered 5×FAD mice (12.34±0.4791 versus 7.837±0.3549 in controls) (FIG. 22A, 22G).

For FC(F)(F)c1ccc(CNc2ccc(Cc3c[nH]c4ncc(Cl)cc34)cn2)cn1 [Plx3397, Pexidartinib], the vGAT synaptic puncta (vGAT; IHC) was 109.9±2.235 % of no treatment control, the “vGAT positive synaptic puncta” value (vGAT; vs untreated) was “significant increase” and the “aggrecan signals around PV interneurons” value (aggrecan) was 12.34±0.4791.
